Assay results reported in patent publication US20060172334A1, “Method for detecting adverse reaction susceptibility to an HMG CoA reductase inhibitor” (Marshfield Clinic, priority 2005, published 2006).
Like-named read-outs stand apart in the source and are kept apart here.

Details: cases only
[1] = CYP3A4 heterozygous (CYP3A4*1A/*1B), less gemfibrozil
[2] = CYP3A4 heterozygous (CYP3A4*1A/*1B), less gemfibrozil AND less niacin
[3] = CYP3A4 heterozygous (CYP3A4*1A/*1B), no medications removed
[4] = CYP3A4 homozygous (CYP3A4*1A/*1A), less gemfibrozil
[5] = CYP3A4 homozygous (CYP3A4*1A/*1A), less gemfibrozil AND less niacin
[6] = CYP3A4 homozygous (CYP3A4*1A/*1A), no medications removed
[7] = CYP3A5 heterozygous (CYP3A5*1/*3), less gemfibrozil
[8] = CYP3A5 heterozygous (CYP3A5*1/*3), less gemfibrozil AND less niacin
[9] = CYP3A5 heterozygous (CYP3A5*1/*3), no medications removed
[10] = CYP3A5 homozygous (CYP3A5*3/*3), less gemfibrozil
[11] = CYP3A5 homozygous (CYP3A5*3/*3), less gemfibrozil AND less niacin
[12] = CYP3A5 homozygous (CYP3A5*3/*3), no medications removed

Description: Study subjects were enrolled at a large, horizontally-integrated, multispecialty group practice located in central Wisconsin. […] Case assignment (i.e., status as a case versus control) was determined by criteria outlined below.
One hundred thirty-seven adult subjects (68 cases and 69 controls) agreed to participate in this study. Due to potentially confounding pharmacokinetic interactions, patients were excluded from the study if they had previously been diagnosed with kidney disease or liver disease. Patients were also excluded if they had pre-existing muscle disease. Patients were not excluded if they were taking concomitant medications.
To determine whether CYP3A4*1B or CYP3A5*3 were associated with the severity of muscle damage, serum CK levels were ranked and compared between genotypes in the case cohort only.

SMILES: CC(C)c1c(C(=O)Nc2ccccc2)c(-c2ccccc2)c(-c2ccc(F)cc2)n1CC[C@@H](O)C[C@@H](O)CC(=O)O [atorvastatin]
- serum CK level, Mean [1]: 268.8
- serum CK level, Median [1]: 246.0
- serum CK level, Mean [2]: 246.6
- serum CK level, Median [2]: 239.0
- serum CK level, Mean [3]: 268.8
- serum CK level, Median [3]: 246.0
- serum CK level, Mean [4]: 434.6
- serum CK level, Median [4]: 316.5
- serum CK level, Mean [5]: 420.4
- serum CK level, Median [5]: 316.5
- serum CK level, Mean [6]: 441.1
- serum CK level, Median [6]: 321.0
- serum CK level, Mean [7]: 261.7
- serum CK level, Median [7]: 239.0
- serum CK level, Mean [8]: 249.9
- serum CK level, Median [8]: 237.5
- serum CK level, Mean [9]: 344.0
- serum CK level, Median [9]: 246.0
- serum CK level, Mean [10]: 441.9
- serum CK level, Median [10]: 321.0
- serum CK level, Mean [11]: 428.0
- serum CK level, Median [11]: 321.0
- serum CK level, Mean [12]: 429.2
- serum CK level, Median [12]: 317.5
